Experimental data published in ChEMBL document CHEMBL1201862, “PubChem BioAssay data set” (2004).
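Method: 48-hour compound exposure of cells in 96-well plates, five concentrations, linear interpolation of endpoints. At the GI50, growth is halved.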 Calls of active or inactive are those of the source. No stated cut-off is given here; in the data, active = GI50 up to about 1.1 µM and inactive = higher.

Tests used:
Experiment in all cases: DTP human tumour cell line panel, 48 h
[1] = system: DMS-114
[2] = system: HL-60
[3] = system: HOP-62
[4] = system: HOP-92
[5] = system: HT-29
[6] = system: LOX IMVI
[7] = system: MOLT-4
[8] = system: NCI-H23
[9] = system: NCI-H460
[10] = system: RPMI-8226
[11] = system: SK-OV-3
[12] = system: SNB-75
[13] = system: SR
[14] = system: UACC-257
[15] = system: UACC-62

| Structure (SMILES) | GI50 [1] | GI50 [2] | GI50 [3] | GI50 [4] | GI50 [5] | GI50 [6] | GI50 [7] | GI50 [8] | GI50 [9] | GI50 [10] | GI50 [11] | GI50 [12] | GI50 [13] | GI50 [14] | GI50 [15] |
| --- | --- | --- | --- | --- | --- | --- | --- | --- | --- | --- | --- | --- | --- | --- | --- |
| CNC(=O)OCc1nccc2c(C)c3[nH]c4ccc(OC)cc4c3cc12 | 2.92 µM (inactive) | 2.58 µM (inactive) | 3.69 µM (inactive) | 10.6 µM (inactive) | 2.54 µM (inactive) | 3.04 µM (inactive) | 0.705 µM (active) | 4.74 µM (inactive) | 1.08 µM (active) | 2.59 µM (inactive) | 10.7 µM (inactive) | 7.82 µM (inactive) | 0.218 µM (active) | 11.3 µM (inactive) | 6.37 µM (inactive) |
| N#Cc1c2c(c(Cl)n3c1nc1ccccc13)CCCC2 | 1.86 µM (inactive) | 1.66 µM (inactive) | > 10 µM (inactive) | – | 1.11 µM (active) | 1.9 µM (inactive) | 3.89 µM (inactive) | 4.54 µM (inactive) | 1.69 µM (inactive) | 1.7 µM (inactive) | 2.48 µM (inactive) | 17.2 µM (inactive) | 2.38 µM (inactive) | 2.05 µM (inactive) | – |
| NC1=NC(=O)/C(=C/c2ccccc2[N+](=O)[O-])C(N)=N1 | > 100 µM (inactive) | > 100 µM (inactive) | > 100 µM (inactive) | > 100 µM (inactive) | > 100 µM (inactive) | > 100 µM (inactive) | > 100 µM (inactive) | > 100 µM (inactive) | > 100 µM (inactive) | > 100 µM (inactive) | > 100 µM (inactive) | > 100 µM (inactive) | > 100 µM (inactive) | > 100 µM (inactive) | > 100 µM (inactive) |
| C=CCN(CC=C)CC(C(C)=O)C(c1ccccc1)c1c(O)c2ccccc2oc1=O (stereo not given) | > 100 µM (inactive) | > 100 µM (inactive) | > 100 µM (inactive) | > 100 µM (inactive) | > 100 µM (inactive) | > 100 µM (inactive) | > 100 µM (inactive) | > 100 µM (inactive) | – | > 100 µM (inactive) | > 100 µM (inactive) | 39.6 µM (inactive) | > 100 µM (inactive) | > 100 µM (inactive) | > 100 µM (inactive) |
| CCOc1ccccc1NC(=O)CC1SC(Nc2ccc([N+](=O)[O-])cc2)=NC1=O (stereo not given) | 13.1 µM (inactive) | 32.6 µM (inactive) | 18.5 µM (inactive) | 10.2 µM (inactive) | 21.7 µM (inactive) | 18.5 µM (inactive) | 19 µM (inactive) | 16.6 µM (inactive) | 21.3 µM (inactive) | 6.95 µM (inactive) | – | 23.2 µM (inactive) | – | 17.3 µM (inactive) | 17.2 µM (inactive) |
| COC(=O)N1C=CC2=C(C)C3Nc4ccccc4C3C(C)=C2C1 (stereo not given) | 23 µM (inactive) | 1.98 µM (inactive) | 1.73 µM (inactive) | 2.09 µM (inactive) | 1.96 µM (inactive) | 2.23 µM (inactive) | 0.234 µM (active) | 4.54 µM (inactive) | 0.256 µM (active) | 0.804 µM (active) | 1.86 µM (inactive) | 2.24 µM (inactive) | – | 3.21 µM (inactive) | 1.72 µM (inactive) |
| Cc1ccc(C(=O)/C=C2\Nc3c(c(=O)oc4ccccc34)N=C2NC23CC4CC(CC(C4)C2)C3)cc1 | > 100 µM (inactive) | > 100 µM (inactive) | > 100 µM (inactive) | 49.2 µM (inactive) | > 100 µM (inactive) | > 100 µM (inactive) | > 100 µM (inactive) | > 100 µM (inactive) | > 100 µM (inactive) | > 100 µM (inactive) | > 100 µM (inactive) | 28.6 µM (inactive) | > 100 µM (inactive) | > 100 µM (inactive) | > 100 µM (inactive) |
| Cc1ccccc1NC(=O)/C(=N/NC(=O)CC#N)C1C(=O)N(c2ccccc2)N=C1N (stereo not given) | > 100 µM (inactive) | 37.9 µM (inactive) | > 100 µM (inactive) | 36.5 µM (inactive) | > 100 µM (inactive) | > 100 µM (inactive) | 72.9 µM (inactive) | > 100 µM (inactive) | > 100 µM (inactive) | 96.2 µM (inactive) | > 100 µM (inactive) | > 100 µM (inactive) | 52.1 µM (inactive) | > 100 µM (inactive) | > 100 µM (inactive) |
| CN(C)CCNC(=O)c1ccc(Cl)c2c(Nc3ccc(S(=O)(=O)N=C(N)N)cc3)c3ccccc3nc12 | 0.993 µM (active) | 1.7 µM (inactive) | 10.1 µM (inactive) | – | 2.05 µM (inactive) | 1.75 µM (inactive) | 0.358 µM (active) | 4.68 µM (inactive) | 1.63 µM (inactive) | – | – | > 10 µM (inactive) | 0.54 µM (active) | – | 5.42 µM (inactive) |
